The values below come from ChEMBL document CHEMBL3763012, “From Sphingosine Kinase to Dihydroceramide Desaturase: A Structure-Activity Relationship (SAR) Study of the Enzyme Inhibitory and Anticancer Activity of 4-((4-(4-Chlorophenyl)thiazol-2-yl)amino)phenol (SKI-II)” (J Med Chem, 2016).

Molecules are shown by their SMILES. The source made the active and inactive calls. No cut-off for these calls is given here. Where only a bound is given, the exact number is not on record here.

For data set [1], the target named is T1, Sphingolipid delta(4)-desaturase DES1 (Homo sapiens) (UniProt O15121).
T1 sequence (whole entry): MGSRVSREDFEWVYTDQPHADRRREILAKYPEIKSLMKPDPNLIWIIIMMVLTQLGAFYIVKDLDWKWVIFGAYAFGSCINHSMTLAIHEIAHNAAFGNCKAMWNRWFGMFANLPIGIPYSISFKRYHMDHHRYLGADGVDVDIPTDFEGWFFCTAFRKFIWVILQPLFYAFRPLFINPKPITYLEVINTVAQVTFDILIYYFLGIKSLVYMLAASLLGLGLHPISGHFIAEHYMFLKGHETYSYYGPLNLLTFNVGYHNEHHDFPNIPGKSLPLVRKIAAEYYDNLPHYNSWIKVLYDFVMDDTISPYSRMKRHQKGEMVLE
Nature of the data set: Inhibition of Des1 activity in human Jurkat cells using fluorescence labeled DhCer-C6-NBD as substrate at 0.1 to 10 uM after 3 hrs by HPLC method. Type of data set: cell-based.

Data set [2] addresses T1, Sphingolipid delta(4)-desaturase DES1 (Homo sapiens). Nature of the data set: Inhibition of Des1 activity in human Jurkat cells using fluorescence labeled DhCer-C6-NBD as substrate at 1 and 10 uM after 3 hrs by HPLC method. Type of data set: cell-based.
Data set [3] is described as follows: Antiproliferative activity against human PC3 cells after 72 hrs by MTS assay. Conditions: PC-3, 72 h. Type of data set: functional. Background: Tetrazolium dyes change colour on reduction, which living cells bring about.
For data set [4], the target named is T2, Sphingosine kinase 2 (Homo sapiens) (UniProt Q9NRA0).
T2 sequence (whole entry): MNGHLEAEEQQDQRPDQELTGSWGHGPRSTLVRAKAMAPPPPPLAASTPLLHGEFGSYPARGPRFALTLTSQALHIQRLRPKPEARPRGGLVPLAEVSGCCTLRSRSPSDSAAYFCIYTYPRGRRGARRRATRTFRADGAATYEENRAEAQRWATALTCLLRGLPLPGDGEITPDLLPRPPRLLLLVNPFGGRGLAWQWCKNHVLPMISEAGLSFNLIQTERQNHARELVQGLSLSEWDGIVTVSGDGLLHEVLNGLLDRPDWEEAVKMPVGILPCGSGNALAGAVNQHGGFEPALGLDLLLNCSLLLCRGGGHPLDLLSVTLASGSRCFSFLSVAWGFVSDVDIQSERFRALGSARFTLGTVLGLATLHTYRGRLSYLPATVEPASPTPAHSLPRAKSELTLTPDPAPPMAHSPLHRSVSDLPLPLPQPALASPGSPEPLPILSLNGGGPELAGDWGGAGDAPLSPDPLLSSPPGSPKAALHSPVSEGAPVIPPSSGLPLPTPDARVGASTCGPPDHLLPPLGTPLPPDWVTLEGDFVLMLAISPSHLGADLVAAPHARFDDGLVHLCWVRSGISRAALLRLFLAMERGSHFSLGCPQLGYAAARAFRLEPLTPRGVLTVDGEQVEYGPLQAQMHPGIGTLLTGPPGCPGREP
Nature of the data set: Inhibition of recombinant human SK2 assessed as production of [32P] S1P using sphingosine as substrate at 10 uM by TLC method in presence of 100 uM [gamma32P]-ATP relative to control; values are per cent of control.

A short description of data set [5]: Cytotoxicity against human PC3 cells after 72 hrs by MTT assay. Type of data set: functional. Conditions: PC-3, 72 h.
The target of data set [6] is T3, Sphingolipid delta(4)-desaturase DES1 (Homo sapiens, UniProt O15121).
T3 sequence (O15121 whole entry): T1 sequence (whole entry)
Nature of the data set: Drug metabolism in human Jurkat cells assessed as DES1-mediated (2E,4E,6E,8E)-3,7-dimethyl-N-(4-oxocyclohexa-2,5-dienylidene)-9-(2,6,6-trimethylcyclohex-1-enyl)nona-2,4,6,8-tetraenamide formation. Type of data set: ADME, cell-based.

Data set [7] has as its target T4, Sphingosine kinase 1 (Homo sapiens, UniProt Q9NYA1). Nature of the data set: Inhibition of SK1 (unknown origin).
For data set [8], the target named is T5, Sphingosine kinase 2 (Homo sapiens, UniProt Q9NRA0).
T5 sequence (Q9NRA0 whole entry): T2 sequence (whole entry)
Kind of data set: Inhibition of SK2 (unknown origin).

In data set [9] the target is T4, Sphingosine kinase 1. Kind of data set: Inhibition of human SK1 using D-erythro sphingosine as substrate and gamma[33P]ATP by Lineweaver-Burk plot analysis.
Data set [10] has as its target T5, Sphingosine kinase 2. Nature of the data set: Inhibition of human SK2 using D-erythro sphingosine as substrate and gamma[33P]ATP by Lineweaver-Burk plot analysis.
Data set [11] addresses T1, Sphingolipid delta(4)-desaturase DES1 (Homo sapiens). Nature of the data set: Inhibition of Des1 activity in human Jurkat cells using fluorescence labeled DhCer-C6-NBD as substrate at 10 uM after 3 hrs by HPLC method. Type of data set: cell-based.
The test system of data set [12] is HEK293. Kind of data set: Induction of SK1 degradation in HEK293 cells at 10 uM after 16 hrs by western blotting analysis in presence of proteasome inhibitor MG132. Type of data set: functional, cell-based. The following applies: Homo sapiens. For orientation: A western blot detects proteins with antibodies after separation by electrophoresis.
Data set [13] concerns the target T4, Sphingosine kinase 1. Nature of the data set: Inhibition of recombinant His-tagged human SK1 assessed as production of [32P]-S1P using 10 uM sphingosine as substrate by TLC method in presence of 1 mM [gamma32P]-ATP.
Data set [14] deals with T5, Sphingosine kinase 2. Kind of data set: Inhibition of recombinant human SK2 assessed as production of [32P] S1P using 10 uM sphingosine as substrate by TLC method in presence of 1 mM [gamma32P]-ATP relative to control.
The test system of data set [15] is PC-3. Nature of the data set: Increase in total dhCer level in human PC3 cells at 10 uM after 5 hrs by LC-MS analysis. Type of data set: functional, cell-based.
In data set [16] the test system is PC-3. Nature of the data set: Anticlonogenic activity against human PC3 cells at 0.05 to 10 uM after 21 days by soft agar colony forming assay. Type of data set: functional, cell-based.
For data set [17], the target named is T1, Sphingolipid delta(4)-desaturase DES1 (Homo sapiens). Kind of data set: Inhibition of Des1 (unknown origin) at 30 uM.
Data set [18] addresses T5, Sphingosine kinase 2. Nature of the data set: Inhibition of recombinant SK2 (unknown origin) expressed in Sf9 cells assessed as [33P]S1P formation using D-erythro sphingosine as substrate and gamma[33P]ATP by liquid scintillation counting.
The target of data set [19] is T1, Sphingolipid delta(4)-desaturase DES1 (Homo sapiens). Nature of the data set: Irreversible inhibition of Des1 activity in human Jurkat cells treated with parent compound treated with fenretinide using fluorescence labeled DhCer-C6-NBD as substrate by HPLC method. Type of data set: cell-based. Conditions: TDE = time-dependent effect.
Data set [20] concerns the target T3, Sphingolipid delta(4)-desaturase DES1. Nature of the data set: Drug level in human Jurkat cells assessed as DES1-mediated compound oxidation treated with fenretinide. Type of data set: ADME, cell-based.

T4 sequence (Q9NYA1 whole entry): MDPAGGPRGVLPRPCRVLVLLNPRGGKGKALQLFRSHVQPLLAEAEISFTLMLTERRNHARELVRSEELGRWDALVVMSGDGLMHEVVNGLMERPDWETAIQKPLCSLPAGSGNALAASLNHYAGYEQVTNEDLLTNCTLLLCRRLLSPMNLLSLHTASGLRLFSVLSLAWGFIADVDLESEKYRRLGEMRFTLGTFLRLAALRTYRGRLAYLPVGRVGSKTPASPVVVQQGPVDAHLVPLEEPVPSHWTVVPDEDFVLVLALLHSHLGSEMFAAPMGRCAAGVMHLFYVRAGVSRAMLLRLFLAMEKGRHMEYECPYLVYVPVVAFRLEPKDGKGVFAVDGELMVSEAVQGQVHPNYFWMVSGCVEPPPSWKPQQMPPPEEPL

A word on the inhibition: it is the change of the read-out against control, counted positive when it falls. Regarding `Oc1ccc(Nc2nnc(-c3ccc(Cl)cc3)o2)cc1`, the inhibition entry in [1] is “Active”.
`N/C(=N\O)c1ccc(Nc2nnc(-c3ccc(Cl)cc3)o2)cc1`: the inhibition entry in [2] was “Active”.
Usually GI50 stands for the concentration at which growth is held to half of that of the control. A word on the residual activity: it is the signal under treatment as a percentage of the control signal. In data set [3], `Clc1ccc(-c2nnc(Nc3ccc(-c4nn[nH]n4)cc3)o2)cc1` came in with a GI50 of 15 µM. Further, the residual activity in [4] was determined as 70%.
On to `CC1=C(/C=C/C(C)=C/C=C/C(C)=C/C(=O)Nc2ccc(O)cc2)C(C)(C)CCC1` [FENRETINIDE], for which, in data set [5], the GI50 was determined as 2 µM. In data set [6], the Drug metabolism result is “metabolite_detected”.
The IC50 is the concentration that inhibits the measured activity by half. On to `OC[C@H]1C[C@H](O)CN1CCCc1ccc(Nc2nc(-c3cccc(C(F)(F)F)c3)cs2)cc1`, for which the IC50 came out at 0.02 µM in data set [7] and 0.148 µM in data set [8].
Turning to `Oc1ccc(-c2nnc(-c3ccc(Cl)cc3)o2)cc1`, the inhibition entry in data set [1] is “inactive”.
As usually defined, the Ki is a dissociation constant, usually derived from enzyme kinetics or from competition with a known ligand. For `Cc1ccc(S(=O)(=O)Nc2ccccc2/C=N/c2ccccc2NS(=O)(=O)c2ccc(C)cc2)cc1`, the figures for the Ki in data set [9] and in [10] were 27 µM and 6.9 µM, respectively.
Take `N/C(=N\O)c1ccc(-c2nnc(-c3ccc(Cl)cc3)o2)cc1`: the inhibition result in data set [11] was “inactive”.
`Cc1cc(CS(=O)(=O)c2ccccc2)cc(OCc2ccc(CN3CCC[C@@H]3CO)cc2)c1` gave a GI50 in data set [3] of 19 µM. In addition, in [12], the result was Active. Also, the residual activity in data set [4] amounted to 45%.
With `Clc1ccc(-c2nnc(NCc3ccncc3)o2)cc1`, in data set [3], the concentration for 50% growth inhibition (GI50) was over 100 µM. Further, the IC50 was determined as 3.1 µM in [13] and 5.5 µM in data set [14]. Further, in data set [4], the residual activity was 39%.
In turn, `Oc1ccc(Nc2nc(-c3ccc(Cl)cc3)cs2)cc1` registered a GI50 in [3] of 11 µM. The result in data set [12], in data set [15] and in data set [16] was Active. The inhibition result in data set [1] was “Active”. Also, in [4], the residual activity was 90%.
Take `O=C(NCc1ccncc1)C12CC3CC(C1)CC(c1ccc(Cl)cc1)(C3)C2`: the inhibition in data set [17] amounted to 40%.
`Oc1ccc(Nc2nnc(-c3ccc(I)cc3)o2)cc1`: the inhibition entry in data set [1] was “Active”.
In turn, `CCCCCCCc1nc(-c2ccc(CNC(=O)[C@H]3NCC[C@@H]3O)cc2)no1` showed a GI50 in data set [3] of over 100 µM. For the same compound, the outcome in data set [12] was Active. For the same compound, in data set [4], the residual activity stood at 112%.
Consider `CCCCCCCCc1ccc(-c2noc([C@H]3CCCN3C(=N)N)n2)cc1`, for which the Ki in [18] turned out to be 1.3 µM.
Regarding `CC1=C(/C=C/C(C)=C/C=C/C(C)=C/C(=O)N=C2C=CC(=O)C=C2)C(C)(C)CCC1`, the inhibition result in [19] is “tde”. In addition, the Drug metabolism entry in data set [20] was “metabolite_detected”.
